Common to all, as to test: inhibition of tumour cell growth, NCI panel, 48 h
Assay [1] has as its system M19-MEL.
The subject of assay [2] is HOP-18.
Assay [3] concerns RXF 631.
In assay [4] the test system is KM-20L2.
The test system of assay [5] is XF498.
The test system of assay [6] is LXFL 529.
The subject of assay [7] is DMS-273.
Assay [8] deals with SNB-78.

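These data come from cells grown in 96-well plates and exposed to compound for 48 hours at five concentrations. GI50 = concentration required for 50% inhibition of growth.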 Calls of active or inactive are those of the source. Cut-off read from the data, not from the text of the source: active = GI50 up to about 1.1 µM and inactive = higher.

As to `O=C1CCCC/C1=C/C=C/c1ccccc1`, the GI50 in assay [1] was 50.9 µM (inactive); in assay [2], > 100 µM (inactive); in assay [3], 69.2 µM (inactive); in assay [4] it was 68.1 µM (inactive); in assay [5] it was > 100 µM (inactive); in assay [6], 64.9 µM (inactive).
Consider `Cc1nc(C(N)=S)sc1C(=O)/C=C/c1c(O)ccc2ccccc12`, for which the GI50 in assay [1] is 13.8 µM (inactive); in assay [2], > 100 µM (inactive); in assay [7], > 100 µM (inactive); in assay [8], > 100 µM (inactive); in assay [3], > 100 µM (inactive); in assay [4], > 100 µM (inactive). For the same compound, the figures for the GI50 in assay [5] and in assay [6] were > 100 µM (inactive) and 30 µM (inactive), respectively.
For the compound `CCOC(=O)c1ccc(/N=C\c2ccc(N(CCC#N)CCC#N)cc2)cc1`, the GI50 was 62.8 µM (inactive) in assay [1]; 35.9 µM (inactive) in assay [7]; > 100 µM (inactive) in assay [8]; > 100 µM (inactive) in assay [3]; 27.7 µM (inactive) in assay [4]; > 100 µM (inactive) in assay [5]. Further, the GI50 in assay [6] is 20.8 µM (inactive).
As to `Cc1cc(NS(=O)(=O)c2ccc(Nc3c4ccccc4nc4c(C(=O)NCCN(C)C)ccc(Cl)c34)cc2)no1`, the GI50 in assay [1] was 3.39 µM (inactive); in assay [8], 10.7 µM (inactive); in assay [3], 0.851 µM (active); in assay [4], 11 µM (inactive); in assay [5], 13.8 µM (inactive); in assay [6], 4.67 µM (inactive).
Turning to `C/C(CC(=O)CCC(=O)Nc1cccc(C(F)(F)F)c1)=N\NC(=O)NN`, the GI50 in assay [1], in assay [2], in assay [7], in assay [8], in assay [3] and in assay [4] was > 100 µM (inactive) throughout. The GI50 in assay [5] and in assay [6] was > 100 µM (inactive) throughout.
As to `C#CC[N+](C)(CC#C)CC#C`, the GI50 in assay [1], in assay [7], in assay [8], in assay [3], in assay [4] and in assay [5] was > 100 µM (inactive) in each case. Moreover, the GI50 in assay [6] was > 100 µM (inactive).
As for `COc1ccc(/C=C/c2nnc(S)[nH]2)cc1`, the GI50 in assay [1] is > 100 µM (inactive); in assay [7], > 100 µM (inactive); in assay [8] it was > 100 µM (inactive); in assay [3] it was > 100 µM (inactive); in assay [4], > 100 µM (inactive); in assay [5] it was 79.3 µM (inactive). In assay [6], the GI50 is > 100 µM (inactive).
In the case of `Cc1cc(OC(=O)c2c(C)cc(OC(=O)c3c(C)cc(O)cc3O)cc2O)cc(O)c1C(=O)O` [GYROPHORIC ACID], the GI50 in assay [1], in assay [7], in assay [8], in assay [3], in assay [4] and in assay [5] was > 100 µM (inactive) throughout. Also, in assay [6], the GI50 is > 100 µM (inactive).
As to `CCOc1ccc(NC(=O)C(=O)CC(=O)C2=C(C)Nc3ccccc3S2)cc1`, the GI50 in assay [1], in assay [2], in assay [3], in assay [4] and in assay [5] was > 50 µM (inactive) each time.
In the case of `NC1=NN(c2ccccc2)C(=O)C1C(=O)C(=O)Nc1cccc(C(F)(F)F)c1` (stereo not given), the GI50 was > 100 µM (inactive) in assay [1]; 67.9 µM (inactive) in assay [2]; > 100 µM (inactive) in assay [7]; > 100 µM (inactive) in assay [8]; > 100 µM (inactive) in assay [3]; > 100 µM (inactive) in assay [4]. Besides, the GI50 in assay [5] was > 100 µM (inactive); in assay [6], 67.1 µM (inactive).
As for `CC1=C(/C(C)=N/NC(=O)c2ccccc2O)C(C)C(/C(C)=N/NC(=O)c2ccccc2O)=C(C)N1`, the GI50 in assay [1] is 18.7 µM (inactive); in assay [8] it was 40.6 µM (inactive); in assay [3], 37.1 µM (inactive); in assay [4], 33.3 µM (inactive); in assay [5], 15.1 µM (inactive); in assay [6], 23.3 µM (inactive).
`CCCCCCCCCCNCCSSCc1ccc(Cl)cc1`: the GI50 in assay [1] was 1.22 µM (inactive); in assay [2], > 10 µM (inactive); in assay [7], 1.4 µM (inactive); in assay [3], 1.69 µM (inactive); in assay [4] it was 1.36 µM (inactive); in assay [5], 2.8 µM (inactive). For the same compound, in assay [6], the GI50 was 1.56 µM (inactive).
Consider `O=C1[C@H]2ON(c3ccccc3)C(c3ccccc3F)[C@H]2C(=O)N1c1ccc(Cc2ccc(N3C(=O)[C@@H]4ON(c5ccccc5)C(c5ccccc5F)[C@@H]4C3=O)cc2)cc1` (stereo not given in full), for which the GI50 was > 100 µM (inactive) in assay [1]; > 100 µM (inactive) in assay [2]; 46.1 µM (inactive) in assay [7]; > 100 µM (inactive) in assay [8]; > 100 µM (inactive) in assay [3]; > 100 µM (inactive) in assay [4]. The GI50 in assay [5] and in assay [6] was > 100 µM (inactive) each time.

(Values after ChEMBL document CHEMBL1201862, “PubChem BioAssay data set” (2004).)
